Test results as given in US20090306228A1, “ACTIVE AGENT DELIVERY SYSTEMS AND METHODS FOR PROTECTING AND ADMINISTERING ACTIVE AGENTS” (priority 2000, published 2009).
“And” between values parts separate entries of the source, which are not always exact repeats. Identical values can stand only once.

Legend:
in vivo = settings: male, Sprague-Dawley, rat, plasma, po
[1] = In vivo performance of polyglutamic acid-AZT conjugate lot TM-113, plasma AZT by ELISA; design: species or system Sprague-Dawley rats; settings: for Plasma concentration of individual rats: Rat #1-#5
Method: […]. Polyglutarnic acid-AZT conjugate was given to five rats at a dose containing 15 mg/kg of AZT.

[2] = after oral administration; cited from earlier work
[3] = test system: protease (type XIV, pronase); settings: Streptomyces griseus, 24 h, pH 8.4
pepsin = pepsin (Sus scrofa, UniProt P00791); settings: pig, 4 h, pH 1.2
pancreatin = settings: pig, 24 h, pH 7.5
[4] = female, Sprague Dawley, rat, in vivo, po
[5] = In vivo performance of polyserine-naltrexone conjugate lot BB-301, serum naltrexone by ELISA; settings: oral capsule; for Serum concentration of individual rats: 3.6 mg naltrexone (12.9 mg conjugate BB-301), Rat #1-#5
[6] = In vivo performance of polyserine-naltrexone conjugate lot BB-272, serum naltrexone by ELISA; settings: for Serum concentration of individual rats: 3.6 mg naltrexone (12 mg conjugate BB-272), Rat #1-#4
Method: No excipients were added to the capsules.

[7] = male, Sprague-Dawley, rat, plasma, po, 15 mg/kg
[8] = male, Sprague Dawley, rat, in vivo, po, 3.6 mg

pepsin, sequence (P00791 60-385): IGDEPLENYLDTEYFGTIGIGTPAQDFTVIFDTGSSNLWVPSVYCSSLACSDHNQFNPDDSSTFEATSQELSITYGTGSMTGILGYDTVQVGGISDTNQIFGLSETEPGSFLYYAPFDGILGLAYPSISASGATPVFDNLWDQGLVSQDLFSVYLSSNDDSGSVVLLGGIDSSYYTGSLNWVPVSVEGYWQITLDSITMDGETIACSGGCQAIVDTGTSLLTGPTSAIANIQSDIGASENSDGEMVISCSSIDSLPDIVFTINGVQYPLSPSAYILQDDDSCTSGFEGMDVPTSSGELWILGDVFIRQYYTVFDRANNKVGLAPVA

## Cc1cn([C@H]2C[C@H](N=[N+]=[N-])[C@@H](CO)O2)c(=O)[nH]c1=O [AZT, 3′-azido-3′-deoxythymidine]
In vivo
  Tmax: 30 min
[1]; [7]
  AUC(0-t): 4040 ng·h/mL
  Cmax: 2390 ng/mL
  Tmax: 30 min
[1]; male, Sprague-Dawley, rat, plasma, po, 15 mg/kg, 15 mg/kg of AZT, lot TM-113, 0 hours
  concentration at 0 h: 7 ng/mL
[1]; male, Sprague-Dawley, rat, plasma, po, 15 mg/kg, 15 mg/kg of AZT, lot TM-113, 0.5 hours
  concentration at 0.5 h: 2390 ng/mL
[1]; male, Sprague-Dawley, rat, plasma, po, 15 mg/kg, 15 mg/kg of AZT, lot TM-113, 3 hours
  concentration at 3 h: 223 ng/mL
[1]; male, Sprague-Dawley, rat, plasma, po, 15 mg/kg, 15 mg/kg of AZT, lot TM-113, 5 hours
  concentration at 5 h: 49 ng/mL
[1]; male, Sprague-Dawley, rat, plasma, po, 15 mg/kg, 15 mg/kg of AZT, lot TM-113, 8 hours
  concentration at 8 h: 11 ng/mL
[1]; male, Sprague-Dawley, rat, plasma, po, 15 mg/kg, 15 mg/kg of AZT, lot TM-113, 12 hours
  concentration at 12 h: 36 ng/mL
[1]; male, Sprague-Dawley, rat, plasma, po, 15 mg/kg, 15 mg/kg of AZT, lot TM-113, 24 hours
  concentration at 24 h: 8 ng/mL
[1]; oral, 15 mg/kg of AZT
  time at which AZT plasma levels spiked: 0.5 h
[1]; oral, 15 mg/kg of AZT, lot TM-113
  time for which plasma levels of AZT remained elevated: < 3 h
[1]; oral, 15 mg/kg of AZT, lot TM-113, 0 hours, 15 mg/kg
  Plasma concentration of individual rats: 6 ng/mL and 4 ng/mL and 2 ng/mL and 9 ng/mL and 14 ng/mL
[1]; oral, 15 mg/kg of AZT, lot TM-113, 0.5 hours, 15 mg/kg
  Plasma concentration of individual rats: 4520 ng/mL and 2108 ng/mL and 2657 ng/mL and 1978 ng/mL and 690 ng/mL
[1]; oral, 15 mg/kg of AZT, lot TM-113, 3 hours, 15 mg/kg
  Plasma concentration of individual rats: 598 ng/mL and 132 ng/mL and 200 ng/mL and 94 ng/mL and 93 ng/mL
[1]; oral, 15 mg/kg of AZT, lot TM-113, 5 hours, 15 mg/kg
  Plasma concentration of individual rats: 79 ng/mL and 25 ng/mL and 78 ng/mL and 26 ng/mL and 39 ng/mL
[1]; oral, 15 mg/kg of AZT, lot TM-113, 8 hours, 15 mg/kg
  Plasma concentration of individual rats: 16 ng/mL and 18 ng/mL and 12 ng/mL and 4 ng/mL and 5 ng/mL
[1]; oral, 15 mg/kg of AZT, lot TM-113, 12 hours, 15 mg/kg
  Plasma concentration of individual rats: 101 ng/mL and 38 ng/mL and 28 ng/mL and 2 ng/mL and 6 ng/mL
[1]; oral, 15 mg/kg of AZT, lot TM-113, 24 hours, 15 mg/kg
  Plasma concentration of individual rats: 13 ng/mL and 12 ng/mL and 4 ng/mL and 8 ng/mL and 3 ng/mL

## CC1OC(OC2C(O)CC(OC3C(O)CC(O[C@H]4CCC5(C)C(CCC6[C@@H]5CC(O)C5(C)[C@@H](C7=CC(=O)OC7)CCC65O)C4)OC3C)OC2C)CC(O)C1O (stereo partly drawn) [Digoxin, digoxin]
[2]
  time until an effect is evident: 1 to 2 h

## Cc1ncc([N+](=O)[O-])n1CCO [Metronidazole]
[3]
  Pronase (release of active agent from peptide conjugate): 28.90%
pepsin
  Stomach (simulator, release of active agent from peptide conjugate): 20.20%
pancreatin
  Intestine (simulator, release of active agent from peptide conjugate): 64.30%

## Nc1ccc(O)c(C(=O)O)c1 [Mesalamine, 5-amino-2-hydroxybenzoic acid]
[3]
  Pronase (release of active agent from peptide conjugate): 46%
pepsin
  Stomach (simulator, release of active agent from peptide conjugate): 11%
pancreatin
  Intestine (simulator, release of active agent from peptide conjugate): 10%

## NS(=O)(=O)c1cc(C(=O)O)c(NCc2ccco2)cc1Cl [Furosemide]
[4]
  9 hour serum level as percent of its 3 hour level: 59.8%

## O=C1CC[C@@]2(O)[C@H]3Cc4ccc(O)c5c4[C@@]2(CCN3CC2CC2)[C@H]1O5 [Naltrexone]
[5]; 0.5 hours
  Serum concentration of individual rats: 39 ng/mL and 141 ng/mL and 128 ng/mL and 126 ng/mL and 142 ng/mL
[5]; 3 hours
  Serum concentration of individual rats: 91 ng/mL and 62 ng/mL and 44 ng/mL and 30 ng/mL and 46 ng/mL
[5]; 5 hours
  Serum concentration of individual rats: 45 ng/mL and 193 ng/mL and 16 ng/mL and 8 ng/mL and 19 ng/mL
[5]; 8 hours
  Serum concentration of individual rats: 19 ng/mL and 6 ng/mL and 2 ng/mL and 5 ng/mL and 4 ng/mL
[5]; 12 hours
  Serum concentration of individual rats: 3 ng/mL (2×) and 1 ng/mL and 2 ng/mL (2×)
[5]; 15 hours
  Serum concentration of individual rats: 4 ng/mL and 1 ng/mL (2×) and 2 ng/mL (2×)
[5]; 24 hours
  Serum concentration of individual rats: 2 ng/mL (2×) and 1 ng/mL (2×) and 3 ng/mL
[5]; equal dose, lot BB-301
  time at which naltrexone serum levels spiked: 0.5 h
  time for which serum levels of naltrexone remained elevated: < 8 h
[6]; [8]
  concentration at 2 h: 46 ng/mL
  concentration at 4 h: 11 ng/mL
  concentration at 6 h: 9 ng/mL
  concentration at 9 h: 3 ng/mL
[6]; oral capsule, 2 hours
  Serum concentration of individual rats: 33 ng/mL and 91 ng/mL and 37 ng/mL and 22 ng/mL
[6]; oral capsule, 4 hours
  Serum concentration of individual rats: 6 ng/mL and 25 ng/mL and 12 ng/mL and 3 ng/mL
[6]; oral capsule, 6 hours
  Serum concentration of individual rats: 13 ng/mL and 10 ng/mL and 8 ng/mL and 6 ng/mL
[6]; oral capsule, 9 hours
  Serum concentration of individual rats: 3 ng/mL and 6 ng/mL and 2 ng/mL and 1 ng/mL
[6]; oral capsule, 12 hours
  Serum concentration of individual rats: 2 ng/mL (2×) and 1 ng/mL
[6]; oral capsule, 3.6 mg naltrexone, lot BB-272, 12 hours
  Mean serum concentration +/- SD: 1 ± 1 ng/mL
[6]; oral capsule, lot BB-272, 2 hours was the first measurement
  time at which serum levels spiked: 2 h

## CCN(CC)CCNC(=O)c1cc(Cl)c(N)cc1OC [Metoclopramide]
[3]
  Pronase (release of active agent from peptide conjugate): 6.50%
pepsin
  Stomach (simulator, release of active agent from peptide conjugate): 0%
pancreatin
  Intestine (simulator, release of active agent from peptide conjugate): 95.20%

## Cc1ccc(C)c(OCCCC(C)(C)C(=O)O)c1 [Gemfibrozil, 5-(2,5-dimethylphenoxy)-2,2-dimethylpentanoic acid]
[3]
  Pronase (release of active agent from peptide conjugate): 2%
pepsin
  Stomach (simulator, release of active agent from peptide conjugate): 0%
pancreatin
  Intestine (simulator, release of active agent from peptide conjugate): 3.60%
